We go through 12 compounds from US12479838B2, “D3 receptor agonist compounds; methods of preparation; intermediates thereof; and methods of use thereof” (THE UNITED STATES OF AMERICA, AS REPRESENTED BY THE …, priority 2019, dated 2025).

For one experiment, the target named is hμOR (Homo sapiens (Human), UniProt P35372). In words: Off-target competition binding vs. [3H]-DAMGO, hμOR. The conditions noted are these: read-out: hμOR Ki ± SEM.
A further experiment deals with human D2LR (Homo sapiens (Human), UniProt P14416). Description: Radioligand competition binding vs. [3H]-(R)-(+)-7-OH-DPAT, hD2R. The conditions noted are these: vs. [3H]-(R)-(+)-7-OH-DPAT. Background: Loss of bound radioactivity is the signal in a displacement assay; it reports binding, not function.
The next experiment concerns the target human D3R (Homo sapiens (Human), UniProt P35462). In words: Radioligand competition binding vs. [3H]-(R)-(+)-7-OH-DPAT, hD3R. The conditions noted are these: vs. [3H]-(R)-(+)-7-OH-DPAT; for D4R/D3R / D2R/D3R: ratio of Ki; for D2R/D3R: D3R selectivity over D2R.
Another experiment addresses hD1R (Homo sapiens (Human), UniProt P21728). In words: Off-target competition binding vs. [3H]-SCH23390, hD1R. The conditions noted are these: read-out: hD1R Ki ± SEM.
A further experiment deals with human D4.4 (Homo sapiens (Human), UniProt P21917). Description: Radioligand competition binding vs. [3H]-(R)-(+)-7-OH-DPAT, hD4R. The conditions noted are these: HEK293 cells stably expressing hD4R, read-out: D4R Ki ± SEM.
Another experiment has as its target hD3R (Homo sapiens (Human), UniProt P35462). Description: Competition binding vs. antagonist [3H]-N-methylspiperone, D3R. The conditions noted are these: read-out: hD3R Ki ± SEM; vs. antagonist [3H]-N-methylspiperone.
The next experiment deals with hD2LR (Homo sapiens (Human), UniProt P14416). In words: Competition binding vs. antagonist [3H]-N-methylspiperone, D2R. The conditions noted are these: read-out: hD2LR Ki ± SEM.
[1] abbreviates: HEK293, read-out: hD2LR Ki ± SEM.
Where [2] appears, read: HEK293, read-out: hD3R Ki ± SEM.
Setting [3] is: vs. [3H]-DAMGO, HEK293 membranes, >100 = <50% inhibition at 100 μM.
[4] abbreviates: HEK293 cells stably expressing hD2R, read-out: D2R Ki ± SEM.
The mark [5] stands for this setting: HEK293 cells stably expressing hD3R, read-out: D3R Ki ± SEM.

Where two headings read alike, the source gives them in different places.

Sequence of hD2LR (P14416 whole entry): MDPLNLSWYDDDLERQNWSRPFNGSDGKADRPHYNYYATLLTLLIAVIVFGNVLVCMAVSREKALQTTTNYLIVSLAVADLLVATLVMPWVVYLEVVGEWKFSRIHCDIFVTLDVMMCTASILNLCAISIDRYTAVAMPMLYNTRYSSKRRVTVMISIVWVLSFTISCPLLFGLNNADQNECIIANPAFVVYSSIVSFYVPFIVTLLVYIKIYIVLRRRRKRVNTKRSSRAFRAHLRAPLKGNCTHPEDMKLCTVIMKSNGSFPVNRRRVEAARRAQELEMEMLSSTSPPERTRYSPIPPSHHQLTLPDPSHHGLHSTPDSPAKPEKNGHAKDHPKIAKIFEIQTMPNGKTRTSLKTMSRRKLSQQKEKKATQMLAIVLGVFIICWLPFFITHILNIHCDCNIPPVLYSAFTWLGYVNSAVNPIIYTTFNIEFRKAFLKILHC
Sequence of human D2LR (P14416 whole entry): as above
Sequence of hD1R (P21728 whole entry): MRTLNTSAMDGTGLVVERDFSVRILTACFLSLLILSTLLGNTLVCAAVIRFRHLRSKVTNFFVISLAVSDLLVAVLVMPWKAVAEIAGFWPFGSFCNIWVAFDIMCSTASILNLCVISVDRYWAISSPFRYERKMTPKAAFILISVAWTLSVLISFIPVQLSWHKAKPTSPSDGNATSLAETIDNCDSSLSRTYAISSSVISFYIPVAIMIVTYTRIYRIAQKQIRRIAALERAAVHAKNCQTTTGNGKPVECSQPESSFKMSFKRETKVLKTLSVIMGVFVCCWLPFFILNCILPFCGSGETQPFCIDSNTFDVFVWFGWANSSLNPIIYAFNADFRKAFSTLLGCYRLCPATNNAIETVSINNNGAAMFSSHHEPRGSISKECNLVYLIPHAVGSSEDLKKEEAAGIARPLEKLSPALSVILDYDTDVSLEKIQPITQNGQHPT
Sequence of human D4.4 (P21917 whole entry): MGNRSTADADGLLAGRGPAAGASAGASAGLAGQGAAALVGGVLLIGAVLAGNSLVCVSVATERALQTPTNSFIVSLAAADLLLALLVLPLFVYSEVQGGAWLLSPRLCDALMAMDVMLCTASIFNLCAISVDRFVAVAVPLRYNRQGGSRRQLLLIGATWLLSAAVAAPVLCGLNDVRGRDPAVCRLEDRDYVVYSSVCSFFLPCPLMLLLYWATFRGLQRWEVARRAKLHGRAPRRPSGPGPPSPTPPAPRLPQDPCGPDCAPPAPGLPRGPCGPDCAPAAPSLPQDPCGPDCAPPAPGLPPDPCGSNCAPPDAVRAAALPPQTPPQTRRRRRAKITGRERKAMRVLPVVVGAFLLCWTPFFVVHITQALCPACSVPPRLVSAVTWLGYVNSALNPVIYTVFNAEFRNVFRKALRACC
Sequence of human D3R (P35462 whole entry): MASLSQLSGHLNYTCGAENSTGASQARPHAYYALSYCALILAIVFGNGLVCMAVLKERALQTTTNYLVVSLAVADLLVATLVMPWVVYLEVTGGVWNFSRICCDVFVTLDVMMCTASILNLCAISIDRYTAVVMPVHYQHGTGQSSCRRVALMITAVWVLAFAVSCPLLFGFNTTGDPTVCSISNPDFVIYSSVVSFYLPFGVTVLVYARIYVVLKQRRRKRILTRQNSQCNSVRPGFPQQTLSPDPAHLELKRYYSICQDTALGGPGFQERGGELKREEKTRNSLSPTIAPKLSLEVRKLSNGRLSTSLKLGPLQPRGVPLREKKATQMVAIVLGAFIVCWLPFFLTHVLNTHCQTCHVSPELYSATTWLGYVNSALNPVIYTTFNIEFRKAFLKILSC
Sequence of hD3R (P35462 whole entry): as above
Sequence of hμOR (P35372 whole entry): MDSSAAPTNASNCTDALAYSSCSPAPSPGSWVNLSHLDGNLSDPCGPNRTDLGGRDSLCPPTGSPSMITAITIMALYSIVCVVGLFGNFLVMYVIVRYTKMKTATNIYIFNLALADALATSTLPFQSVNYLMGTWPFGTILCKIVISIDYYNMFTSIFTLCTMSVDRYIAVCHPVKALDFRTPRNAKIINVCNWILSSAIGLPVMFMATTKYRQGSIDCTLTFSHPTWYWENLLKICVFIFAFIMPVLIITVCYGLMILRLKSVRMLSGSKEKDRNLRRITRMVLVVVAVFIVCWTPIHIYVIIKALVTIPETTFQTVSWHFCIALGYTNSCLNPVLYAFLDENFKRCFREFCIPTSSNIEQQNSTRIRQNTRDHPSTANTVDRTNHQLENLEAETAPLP

Broadly, the Ki is a dissociation constant, usually derived from enzyme kinetics or from competition with a known ligand. Take `O=C(NCCCCN1CCOC2c3cc(O)ccc3OC[C@@H]21)c1cc2ccccc2[nH]1` (stereo in doubt) [rel-cis-12]: the Ki at hμOR is 12300 ± 2880 nM; at human D2LR (setting [1]) it was 9420 ± 3440 nM; on human D3R (setting [2]), 13800 nM; at hD1R it was over 100000 nM.
As to `CCCN1CCO[C@@H]2c3cc(O)ccc3OC[C@H]21` [(+)-(4aR,10bR)-2, reference compound], the Ki was 36600 ± 19800 nM on hμOR (setting [3]), 28 ± 5.59 nM on human D2LR (setting [1]), 1.67 ± 0.257 nM on human D3R (setting [2]) and over 100000 nM on hD1R.
Turning to `CCCN1CCO[C@@H]2c3cc(O)ccc3OC[C@H]21` [(+)-PD128,907, (4aR,10bR)-4-propyl-3,4,4a,10b-tetrahydro-2H,5H-chromeno[4,3-b][1,4]oxazin-9-ol, reference compound], the Ki was 26.6 ± 3.97 nM on human D4.4, 20.5 ± 2.87 nM on human D2LR (setting [4]) and 1.69 ± 0.0892 nM at human D3R (setting [5]). In addition, at human D3R, the D4R/D3R turned out to be 15.7. For the same compound, the D2R/D3R at human D3R is 12.1.
On to `CCCN1CCO[C@H]2c3cc(O)ccc3OC[C@@H]21` [(−)-(4aS,10bS)-2, reference compound], for which the Ki on hμOR (setting [3]) was 77900 ± 41400 nM; on human D2LR (setting [1]), 7580 ± 2620 nM; at human D3R (setting [2]), 5620 nM; on hD1R, over 100000 nM. In addition, the “loss of D3R affinity relative to (+)-(4aR,10bR)-2” value on human D3R was over 3000 fold.
On to `CCCN1CC(c2ccc(N)nc2)OC[C@@H]1C` (some centres unmarked) [AB03-02, reference compound], for which the Ki was 292 ± 22.2 nM at human D4.4, 1740 ± 348 nM on human D2LR (setting [1]) and 185 ± 20.5 nM at human D3R (setting [5]). Moreover, the D4R/D3R at human D3R is listed as 1.58. On human D3R, the D2R/D3R came out at 9.41.
Regarding `C[C@H]1COC(c2ccc(N)nc2)CN1CCCCOc1ccc2c(c1)NC(=O)CC2` (stereo partly drawn) [AB04-35, 7-(4-((5S)-2-(6-aminopyridin-3-yl)-5-methylmorpholino)butoxy)-3,4-dihydroquinolin-2(1H)-one], the Ki at human D4.4 worked out at 3220 nM; at human D2LR (setting [4]) it was 113 ± 22.7 nM; on human D3R (setting [5]) it was 173 ± 48.2 nM. In addition, the D4R/D3R on human D3R was found to be 18.6. In addition, the D2R/D3R at human D3R is given as 0.653.
In the case of `CCCN(CCC)c1ccc(C2CN(CCC)[C@@H](C)CO2)cn1` (stereo partly drawn) [AB04-52, 5-((5S)-5-methyl-4-propylmorpholin-2-yl)-N,N-dipropylpyridin-2-amine], the Ki on human D4.4 is over 100000 nM; at human D2LR (setting [4]), 8240 nM; on human D3R (setting [5]), 21100 nM. On human D3R, the D4R/D3R is listed as over 4.74. Also, the D2R/D3R on human D3R was 0.391.
For the compound `C[C@H]1CO[C@@H](c2ccc(N)nc2)CN1CC(=O)N1CCC(CNC(=O)c2cc3ccccc3[nH]2)C1` (stereo partly drawn) [AB07-80, N-((1-(2-((2S,5S)-2-(6-aminopyridin-3-yl)-5-methylmorpholino)acetyl)pyrrolidin-3-yl)methyl)-1H-indole-2-carboxamide], the Ki at hD3R was 2410 ± 287 nM; at human D2LR (setting [4]) it was 1840 nM; at human D3R (setting [5]), 2010 nM; at hD2LR, 7930 ± 1190 nM.
In the case of `C[C@H]1CO[C@@H](c2ccc(N)nc2)CN1CCn1cc(CNC(=O)c2cc3ccccc3[nH]2)nn1` [AB08-03, N-((1-(2-((2S,5S)-2-(6-aminopyridin-3-yl)-5-methylmorpholino)ethyl)-1H-1,2,3-triazol-4-yl)methyl)-1H-indole-2-carboxamide], the figures for the Ki on hD3R and at hD2LR were 2780 ± 1020 nM and 32300 ± 12700 nM, respectively.
With `C[C@H]1CO[C@@H](c2ccc(N)nc2)CN1CC(O)CCNC(=O)c1cc2ccccc2[nH]1` (some centres unmarked) [FOB02-67], the results for the Ki on hμOR (setting [3]), on human D2LR (setting [4]) and on human D3R (setting [5]) were 739 ± 70.1 nM, 1010 ± 162 nM and 423 ± 164 nM, respectively.
For the compound `C[C@H]1CO[C@@H](c2ccc(N)nc2)CN1C/C=C1\CCC(CNC(=O)c2cc3ccccc3[nH]2)C1` (some centres unmarked) [FOB04-02], the Ki on hD3R is 104 ± 7.65 nM; on human D2LR (setting [4]), 55.9 ± 4.78 nM; at human D3R (setting [5]), 7.41 ± 0.323 nM; at hD2LR, 7920 ± 772 nM.
In the case of `C[C@H]1CO[C@@H](c2ccc(N)nc2)CN1CC1CC1CNC(=O)c1cc2ccccc2[nH]1` (stereo partly drawn) [trans-AB05-27B, trans-N-((2-(((2S,5S)-2-(6-aminopyridin-3-yl)-5-methylmorpholino)methyl)cyclopropyl)methyl)-1H-indole-2-carboxamide], the Ki turned out to be 707 ± 19.8 nM on human D2LR (setting [4]); 404 nM at human D3R (HEK293 cells stably expressing hD3R, listed as AB05-27B, read-out: D3R Ki ± SEM); 404 ± 34 nM at human D3R (setting [5]). Besides, the D2R/D3R on human D3R was 1.75.
